Earlier results, collected in publication PMC6683083, “Lupin Peptide T9 (GQEQSHQDEGVIVR) Modulates the Mutant PCSK9^D374Y Pathway: in vitro Characterization of its Dual Hypocholesterolemic Behavior” (Nutrients, 2019).
Where two headings read alike, the source gives them in different places.

Key:
[1] = biological target: T1, HMGCoAR (Homo sapiens, UniProt P04035); parameters: method as in 4 sources, ref [16],[18] = [16]; doi:10.1016/j.jff.2017.02.009; 16. Zanoni C. Aiello G. Arnoldi A. Lammi C. Investigations on the hypocholesterolaemic activity of LILPKHSDAD and LTFPGSAED, two peptides from lupin beta-conglutin: Focus on LDLR and PCSK9 pathways J || [18]; doi:10.1111/jfbc.12524; 18. Lammi C. Zanoni C. Arnoldi A. Aiello G. YDFYPSSTKDQQS (P3), a peptide from lupin protein, absorbed by Caco-2 cells, modulates cholesterol metabolism in HepG2 cells via SREBP-1 activation J. Food B ||| ref [19],[20],[21] = [19]; doi:10.1016/j.jff.2015.02.021; 19. Lammi C. Zanoni C. Arnoldi A. IAVPGEVA, IAVPTGVA, and LPYP, three peptides from soy glycinin, modulate cholesterol metabolism in HepG2 cells through the activation of the LDLR-SREBP2 pathway J. Fu || [20]; PMID 26310992; doi:10.1021/acs.jafc.5b03497; 20. Lammi C. Zanoni C. Vistoli G. Arnoldi A. Two Peptides from Soy β-Conglycinin Induce a Hypocholesterolemic Effect in HepG2 Cells by a Statin-Like Mechanism: Comparative in Vitro and in Silico Model || [21]; PMID 26580610; doi:10.3390/ijms161126029; 21. Lammi C. Zanoni C. Arnoldi A. Three Peptides from Soy Glycinin Modulate Glucose Metabolism in Human Hepatic HepG2 Cells Int. J. Mol. Sci. 2015 16 27362 27370 10.3390/ijms161126029 26580610 PMC4661 ||| ref [6] = [6]; PMID 25690031; doi:10.3390/ijms16024150; 6. Soares R.A. Mendonça S. De Castro L. Menezes A.C. Arêas J.A. Ívini Major Peptides from Amaranth (Amaranthus cruentus) Protein Inhibit HMG-CoA Reductase Activity Int. J. Mol. Sci. 2015 16 4150 4160 ||| ref [4],[16] = [4]; PMID 24972343; doi:10.1021/jf500795b; 4. Lammi C. Zanoni C. Scigliuolo G.M. D’Amato A. Arnoldi A. Lupin Peptides Lower Low-Density Lipoprotein (LDL) Cholesterol through an Up-regulation of the LDL Receptor/Sterol Regulatory Element Bindin || [16]; doi:10.1016/j.jff.2017.02.009; 16. Zanoni C. Aiello G. Arnoldi A. Lammi C. Investigations on the hypocholesterolaemic activity of LILPKHSDAD and LTFPGSAED, two peptides from lupin beta-conglutin: Focus on LDLR and PCSK9 pathways J; conditions: cited from earlier work
T1 construct: purchased Sigma (Sigma-Aldrich, St. Louis, MO, USA)
T1 sequence (P04035 426-888 limits assumed): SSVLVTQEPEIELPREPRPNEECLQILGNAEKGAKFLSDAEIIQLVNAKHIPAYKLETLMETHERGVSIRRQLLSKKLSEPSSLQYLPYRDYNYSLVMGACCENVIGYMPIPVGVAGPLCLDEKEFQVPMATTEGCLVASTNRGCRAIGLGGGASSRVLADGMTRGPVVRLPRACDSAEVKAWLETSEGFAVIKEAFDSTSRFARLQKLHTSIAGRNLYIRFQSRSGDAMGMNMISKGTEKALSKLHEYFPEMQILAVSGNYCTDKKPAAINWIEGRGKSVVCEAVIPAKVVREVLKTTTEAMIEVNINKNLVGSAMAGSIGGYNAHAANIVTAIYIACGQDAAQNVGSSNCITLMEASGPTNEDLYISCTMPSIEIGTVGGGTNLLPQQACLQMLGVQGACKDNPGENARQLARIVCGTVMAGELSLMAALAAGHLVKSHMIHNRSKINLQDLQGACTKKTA

[2] = tested on: PCSK9; conditions: cited from earlier work
Description: It is important to observe that some natural PCSK9 mutations affect its affinity for the LDLR. In particular, the gain of function (GOF) mutant D374Y binds more avidly to the LDLR than the wild-type (WT) PCSK9. The consequence is an approximately tenfold increased capacity of reducing the LDLR protein level. Accordingly, subjects with this PCSK9^D374Y mutation have very high LDL-C levels and are at high risk of atherosclerosis. In light of these observations, PCSK9 is currently considered a new target for the treatment of hypercholesterolemia, and the development of novel PCSK9 inhibitor ... || In this panorama, lupin protein hydrolysates, obtained by treating the proteins with pepsin and trypsin, show synergistic hypocholesterolemic effects through the modulation of both HMGCoAR and PCSK9 targets. […] Furthermore, these lupin hydrolysates impair the protein–protein interaction (PPI) betwe ... || Taking into account all this information, it is possible to affirm that there is an interesting similarity between the hypocholesterolemic behaviors of T9 and P5.

[3] = tested on: LDLR in HepG2 cells; conditions: ref [16]; cited from earlier work
Description: In this panorama, lupin protein hydrolysates, obtained by treating the proteins with pepsin and trypsin, show synergistic hypocholesterolemic effects through the modulation of both HMGCoAR and PCSK9 targets. […] Furthermore, these lupin hydrolysates impair the protein–protein interaction (PPI) betwe ... || Taking into account all this information, it is possible to affirm that there is an interesting similarity between the hypocholesterolemic behaviors of T9 and P5.

[4] = tested on: LDL uptake by HepG2 cells; conditions: cited from earlier work
Description: (§1) In this panorama, lupin protein hydrolysates, obtained by treating the proteins with pepsin and trypsin, show synergistic hypocholesterolemic effects through the modulation of both HMGCoAR and PCSK9 targets. […] In parallel, we have also predicted by in silico experiments that T9 had the potential capability of inhibiting the HMGCoAR activity.

[5] = tested on: PCSK9-LDLR protein–protein interaction; conditions: ref [15]; cited from earlier work
Description: as §1

[6] = tested on: HMGCoAR protein levels; conditions: reference not given; presumably ref [16]; cited from earlier work
Description: (§2) Taking into account all this information, it is possible to affirm that there is an interesting similarity between the hypocholesterolemic behaviors of T9 and P5.

[7] = tested on: SREBP-2 transcription factor; conditions: ref [16]; cited from earlier work
Description: as §2

[8] = tested on: HNF-1α; conditions: ref [16]; cited from earlier work
Description: as §2

[9] = lupin β-conglutin peptides (pepsin), in vitro, ref [16],[18], read-out: IC50, HMGCoAR activity
[10] = soybean glycinin peptides, ref [19],[20],[21], read-out: IC50, HMGCoAR activity

## LTFPGSAED [P7, absorbable peptide deriving from hydrolysis of lupin β-conglutin with pepsin]
[1]; [9]
  IC50: 68.4 µM

## YVVNPDNNEN [soybean peptide from β-conglycinin]
[1]; soybean β-conglycinin peptides, ref [19],[20],[21], read-out: IC50, HMGCoAR activity
  IC50: 200 µM

## COc1ccc2cc3[n+](cc2c1OC)CCc1cc2c(cc1-3)OCO2 [berberine]
[2]; ref [14]
  PCSK9 pathway (in words): modulate the PCSK9 pathway

## LPYP [soybean peptide from glycinin hydrolysis]
[1]; [10]
  IC50: 300 µM

## LILPKHSDAD [P5, absorbable peptide deriving from hydrolysis of lupin β-conglutin with pepsin]
[1]; [9]
  IC50: 147 µM
[3]
  LDLR protein levels (in words): increase of the LDLR protein levels
[4]; HepG2 cells, ref [15]
  ability of HepG2 cells to clear / absorb extracellular LDL (in words): increased ability of HepG2 cells to clear extracellular LDL
[4]; ref [16]
  capacity of HepG2 cells to clear LDL (in words): enhanced capacity of HepG2 cells to clear LDL from the extracellular space
[5]
  effect on PPI between PCSK9 and LDLR (in words): able to affect the PPI between PCSK9 and the LDLR
[6]
  HMGCoAR protein levels (in words): does not diminish the HMGCoAR protein levels
[7]
  SREBP-2 transcription factor activation (in words): augmentation of the SREBP-2 transcription factor activation
[8]
  HNF-1α level (in words): decrease of HNF-1α
[2]; ref [16]
  PCSK9-WT protein level (in words): decrease of PCSK9-WT protein level
  selectivity, PCSK9-WT pathway modulation (in words): selective toward the PCSK9-WT pathway modulation

## YDFYPSSTKDQQS [P3, absorbable peptide deriving from hydrolysis of lupin β-conglutin with pepsin]
[1]; [9]
  IC50: 70 µM

## VGVL
[1]; amaranth peptide, ref [6], read-out: concentration inhibiting HMGCoAR by 50%
  IC50: 51.9 µM
[1]; amaranth protein hydrolysis peptides, ref [6]
  HMGCoAR inhibition (in words): direct inhibition of the reductase activity

## IAVPTGVA [soybean peptide from glycinin hydrolysis]
[1]; [10]
  IC50: 247 µM

## IAVPGEVA [soybean peptide from glycinin hydrolysis]
[1]; [10]
  IC50: 222 µM
